System: 454973-116-R2-J3-PDC spheroids, viability, % test/control
Assay: Anticancer human tumor 454973-116-R2-J3-PDC patient-derived pancreatic carcinoma cell line growth inhibition [GQUAD]
Settings: spheroids with HUVEC and MSC; for IC50: curve of first compound; for viability, T/C: stronger effect = lower value; active = viability on the fitted dose curve at most 10% of control; inactive = the rest
How it was run: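 Multi-cell-type spheroids of tumor cells with HUVEC and mesenchymal stem cells, treated with drug combinations. Concentrations descend in half-log steps from near clinical Cmax, or from 10 microM where Cmax is unknown; viability read-out.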

[1] = second compound 0.0316 µM, first compound 0.0316 µM
[2] = second compound 0.0316 µM, first compound 0.316 µM
[3] = second compound 0.1 µM, first compound 0.0316 µM
[4] = second compound 0.1 µM, first compound 0.316 µM
[5] = second compound 0.316 µM, first compound 0.0316 µM
[6] = second compound 0.316 µM, first compound 0.316 µM
[7] = second compound 1 µM, first compound 0.0316 µM
[8] = second compound 1 µM, first compound 0.316 µM
[9] = second compound 3.16 µM, first compound 0.0316 µM
[10] = second compound 3.16 µM, first compound 0.316 µM
[11] = second compound 10 µM, first compound 0.0316 µM
[12] = second compound 10 µM, first compound 0.316 µM
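Note: spheroids exposed to compounds for seven days.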
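Throughout, for viability, T/C: 100% = DMSO vehicle control viability.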

CC[C@@]1(O)C(=O)OCc2c1cc1n(c2=O)Cc2cc3c(CN(C)C)c(O)ccc3nc2-1 + Cc1cnc(CNC(=O)c2c(=O)c3ccc(N4CCCN(C)CC4)nc3n3c2sc2ccccc23)cn1
< 0.999 nM: IC50 (second compound 10 µM)
17.5 nM: IC50 (second compound 0.316 µM)
inactive: viability, T/C (second compound 0.0316 µM, first compound 0.000999 µM) 104% | viability, T/C (second compound 0.0316 µM, first compound 0.00316 µM) 95.8% | viability, T/C (second compound 0.0316 µM, first compound 0.00999 µM) 84.9% | viability, T/C [1] 49% | viability, T/C (second compound 0.0316 µM, first compound 0.0999 µM) 21.9% | viability, T/C [2] 23.7% | viability, T/C (second compound 0.1 µM, first compound 0.000999 µM) 90.8% | viability, T/C (second compound 0.1 µM, first compound 0.00316 µM) 90.2% | viability, T/C (second compound 0.1 µM, first compound 0.00999 µM) 77% | viability, T/C [3] 33.4% | viability, T/C (second compound 0.1 µM, first compound 0.0999 µM) 24.8% | viability, T/C [4] 23.1% | viability, T/C (second compound 0.316 µM, first compound 0.000999 µM) 79.9% | viability, T/C (second compound 0.316 µM, first compound 0.00316 µM) 69.1% | viability, T/C (second compound 0.316 µM, first compound 0.00999 µM) 55.6% | viability, T/C [5] 43.1% | viability, T/C (second compound 0.316 µM, first compound 0.0999 µM) 39.2% | viability, T/C [6] 32.9% | viability, T/C (second compound 1 µM, first compound 0.000999 µM) 67.1% | viability, T/C (second compound 1 µM, first compound 0.00316 µM) 67.6% | viability, T/C (second compound 1 µM, first compound 0.00999 µM) 54.9% | viability, T/C [7] 48.4% | viability, T/C (second compound 1 µM, first compound 0.0999 µM) 50% | viability, T/C [8] 47.4% | viability, T/C (second compound 3.16 µM, first compound 0.000999 µM) 61.2% | viability, T/C (second compound 3.16 µM, first compound 0.00316 µM) 63.4% | viability, T/C (second compound 3.16 µM, first compound 0.00999 µM) 60.2% | viability, T/C [9] 49.6% | viability, T/C (second compound 3.16 µM, first compound 0.0999 µM) 61.7% | viability, T/C [10] 42.7% | viability, T/C (second compound 10 µM, first compound 0.000999 µM) 19.2% | viability, T/C (second compound 10 µM, first compound 0.00316 µM) 17.5% | viability, T/C (second compound 10 µM, first compound 0.00999 µM) 57% | viability, T/C [11] 45.9% | viability, T/C (second compound 10 µM, first compound 0.0999 µM) 0.31%
24.4 nM: IC50 (second compound 1 µM)
20.4 nM: IC50 (second compound 0.1 µM)
189 nM: IC50 (second compound 3.16 µM)
active: viability, T/C [12] 0.23%
29.5 nM: IC50 (second compound 0.0316 µM)

C=CC(=O)N1CCN(c2nc(=O)n(-c3c(C)ccnc3C(C)C)c3nc(-c4c(O)cccc4F)c(F)cc23)C(C)C1 (centres undefined) + Cc1[nH]c2ccc(F)cc2c1-c1nc2c3cccnc3c3ncccc3c2[nH]1
> 10000 nM: IC50 (second compound 0.0316 µM) | IC50 (second compound 0.1 µM) | IC50 (second compound 0.316 µM) | IC50 (second compound 1 µM) | IC50 (second compound 3.16 µM) | IC50 (second compound 10 µM)
inactive: viability, T/C [1] 110% | viability, T/C (second compound 0.0316 µM, first compound 0.1 µM) 107% | viability, T/C [2] 115% | viability, T/C (second compound 0.0316 µM, first compound 1 µM) 109% | viability, T/C (second compound 0.0316 µM, first compound 3.16 µM) 113% | viability, T/C (second compound 0.0316 µM, first compound 10 µM) 114% | viability, T/C [3] 100% | viability, T/C (second compound 0.1 µM, first compound 0.1 µM) 102% | viability, T/C [4] 114% | viability, T/C (second compound 0.1 µM, first compound 1 µM) 108% | viability, T/C (second compound 0.1 µM, first compound 3.16 µM) 125% | viability, T/C (second compound 0.1 µM, first compound 10 µM) 109% | viability, T/C [5] 103% | viability, T/C (second compound 0.316 µM, first compound 0.1 µM) 111% | viability, T/C [6] 107% | viability, T/C (second compound 0.316 µM, first compound 1 µM) 100% | viability, T/C (second compound 0.316 µM, first compound 3.16 µM) 119% | viability, T/C (second compound 0.316 µM, first compound 10 µM) 113% | viability, T/C [7] 107% | viability, T/C (second compound 1 µM, first compound 0.1 µM) 97% | viability, T/C [8] 112% | viability, T/C (second compound 1 µM, first compound 1 µM) 103% | viability, T/C (second compound 1 µM, first compound 3.16 µM) 114% | viability, T/C (second compound 1 µM, first compound 10 µM) 123% | viability, T/C [9] 96.2% | viability, T/C (second compound 3.16 µM, first compound 0.1 µM) 95.3% | viability, T/C [10] 96.4% | viability, T/C (second compound 3.16 µM, first compound 1 µM) 111% | viability, T/C (second compound 3.16 µM, first compound 3.16 µM) 113% | viability, T/C (second compound 3.16 µM, first compound 10 µM) 107% | viability, T/C [11] 93.8% | viability, T/C (second compound 10 µM, first compound 0.1 µM) 81.8% | viability, T/C [12] 104% | viability, T/C (second compound 10 µM, first compound 1 µM) 92.8% | viability, T/C (second compound 10 µM, first compound 3.16 µM) 89.6% | viability, T/C (second compound 10 µM, first compound 10 µM) 83.6%
